Experimental data reported in publication PMC3486884 (PLoS Pathogens, 2012).
Read-outs that look alike come from different tables or passages of the source.

What was measured:
[1] = test system: CVB4; details: n=2
[2] = test system: CVA21; assay: microbe, parasite or virus in culture; details: Coxsackievirus, CVA21, HeLa, read-out: IC50 (CVA21)
[3] = test system: HRV1A; assay: microbe, parasite or virus in culture; details: Human rhinovirus sp.; for IC50: HeLa, read-out: IC50 (HRV1A); for activity at 0.03 µM / activity at 0.1 µM / activity at 0.31 µM / activity at 0.93 µM / activity at 2.78 µM / activity at 8.33 µM / activity at 25 µM: M-HeLa, 7 h; for activity at 0.03 µM: read-out: HRV1A infection (dsRNA), 0.03 µM; for activity at 0.1 µM: read-out: HRV1A infection (dsRNA), 0.10 µM; for activity at 0.31 µM: read-out: HRV1A infection (dsRNA), 0.31 µM; for activity at 0.93 µM: read-out: HRV1A infection (dsRNA), 0.93 µM; for activity at 2.78 µM: read-out: HRV1A infection (dsRNA), 2.78 µM; for activity at 8.33 µM: read-out: HRV1A infection (dsRNA), 8.33 µM; for activity at 25 µM: read-out: HRV1A infection (dsRNA), 25.00 µM
[4] = test system: HRV2; details: n=2
[5] = test system: HRV16; assay: microbe, parasite or virus in culture; details: Human rhinovirus sp., HRV16, HeLa, read-out: IC50 (HRV16)
[6] = test system: HRV1A; details: n=2
[7] = test system: CVB4; assay: microbe, parasite or virus in culture; details: Enterovirus B, CVB4, HeLa, read-out: IC50 (CVB4)
[8] = test system: CVB3; details: n=2
[9] = test system: influenza virus (strain A/Puerto Rico/8/34/H1N1 depicted PR8); assay: microbe, parasite or virus in culture; details: unidentified influenza virus, A549, read-out: IC50 (PR8)
[10] = test system: HRV16; details: n=2
[11] = test system: HRV2; assay: microbe, parasite or virus in culture; details: Human rhinovirus sp., HRV2, HeLa, read-out: IC50 (HRV2)
[12] = test system: CVA21; details: n=2
[13] = test system: HRV14; assay: microbe, parasite or virus in culture; details: Human rhinovirus sp., HRV14, HeLa, read-out: IC50 (HRV14)
[14] = test system: HRV14; details: n=2

What does the source list for `O=C(Nc1ccc([N+](=O)[O-])cc1Cl)c1ccccc1O` [TVB-1332]?
relative infection ([1]; CVB4, 0.1 µM, normalized to DMSO control (1), Figure S7A): 1.10; relative infection ([1]; CVB4, 0.3 µM, normalized to DMSO control (1), Figure S7A): 1.16; relative infection ([1]; CVB4, 0.9 µM, normalized to DMSO control (1), Figure S7A): 1.25; relative infection ([1]; CVB4, 2.8 µM, normalized to DMSO control (1), Figure S7A): 0.86; relative infection ([1]; CVB4, 8.3 µM, normalized to DMSO control (1), Figure S7A): 0.34; relative infection ([1]; CVB4, 25.0 µM, normalized to DMSO control (1), Figure S7A): 0.33; IC50 [2]: 14.7 µM; IC50 [3]: 3.19 µM; activity at 0.03 µM [3]: 108%; activity at 0.1 µM [3]: 98%; activity at 0.31 µM [3]: 96%; activity at 0.93 µM [3]: 88%; activity at 2.78 µM [3]: 44%; activity at 8.33 µM [3]: 5%; activity at 25 µM [3]: 4%; relative infection ([4]; HRV2, 0.1 µM, normalized to DMSO control (1), Figure S7A): 0.94; relative infection ([4]; HRV2, 0.3 µM, normalized to DMSO control (1), Figure S7A): 0.97; relative infection ([4]; HRV2, 0.9 µM, normalized to DMSO control (1), Figure S7A): 0.95; relative infection ([4]; HRV2, 2.8 µM, normalized to DMSO control (1), Figure S7A): 0.38; relative infection ([4]; HRV2, 8.3 µM, normalized to DMSO control (1), Figure S7A): 0.01; relative infection ([4]; HRV2, 25.0 µM, normalized to DMSO control (1), Figure S7A): 0.01; IC50 [5]: 3.74 µM; relative infection ([6]; 0.1 µM): 0.99; relative infection ([6]; 0.3 µM): 1.01; relative infection ([6]; 0.9 µM): 0.97; relative infection ([6]; 2.8 µM): 0.61; relative infection ([6]; 8.3 µM): 0.04; relative infection ([6]; 25.0 µM): 0.02; IC50 [7]: 8.01 µM; relative infection ([8]; 0.1 µM): 1.01; relative infection ([8]; 2.8 µM): 1.08; relative infection ([8]; CVB3, 0.3 µM, normalized to DMSO control (1), Figure S7A): 1.11; relative infection ([8]; CVB3, 0.9 µM, normalized to DMSO control (1), Figure S7A): 1.07; relative infection ([8]; CVB3, 8.3 µM, normalized to DMSO control (1), Figure S7A): 1.05; relative infection ([8]; CVB3, 25.0 µM, normalized to DMSO control (1), Figure S7A): 1.15; IC50 [9]: ~2.7 µM; relative infection ([10]; HRV16, 0.1 µM, normalized to DMSO control (1), Figure S7A): 0.98; relative infection ([10]; HRV16, 0.3 µM, normalized to DMSO control (1), Figure S7A): 0.95; relative infection ([10]; HRV16, 0.9 µM, normalized to DMSO control (1), Figure S7A): 0.94; relative infection ([10]; HRV16, 2.8 µM, normalized to DMSO control (1), Figure S7A): 0.66; relative infection ([10]; HRV16, 8.3 µM, normalized to DMSO control (1), Figure S7A): 0.14; relative infection ([10]; HRV16, 25.0 µM, normalized to DMSO control (1), Figure S7A): 0.07; IC50 [11]: 2.36 µM; relative infection ([12]; CVA21, 0.1 µM, normalized to DMSO control (1), Figure S7A): 0.91; relative infection ([12]; CVA21, 0.3 µM, normalized to DMSO control (1), Figure S7A): 0.95; relative infection ([12]; CVA21, 0.9 µM, normalized to DMSO control (1), Figure S7A): 0.93; relative infection ([12]; CVA21, 2.8 µM, normalized to DMSO control (1), Figure S7A): 1.02; relative infection ([12]; CVA21, 8.3 µM, normalized to DMSO control (1), Figure S7A): 0.81; relative infection ([12]; CVA21, 25.0 µM, normalized to DMSO control (1), Figure S7A): 0.20; IC50 [13]: 2.47 µM; relative infection ([14]; HRV14, 0.1 µM, normalized to DMSO control (1), Figure S7A): 0.91; relative infection ([14]; HRV14, 0.3 µM, normalized to DMSO control (1), Figure S7A): 0.96; relative infection ([14]; HRV14, 0.9 µM, normalized to DMSO control (1), Figure S7A): 0.82; relative infection ([14]; HRV14, 2.8 µM, normalized to DMSO control (1), Figure S7A): 0.47; relative infection ([14]; HRV14, 8.3 µM, normalized to DMSO control (1), Figure S7A): 0.09; relative infection ([14]; HRV14, 25.0 µM, normalized to DMSO control (1), Figure S7A): 0.05

For `O=C(Nc1ccc([N+](=O)[O-])cc1Cl)c1cc(Cl)cc(Cl)c1O` [TVB-1326], which relative infection ([1]; 0.1 µM) is on record?
The relative infection was 1.13.

What about the relative infection ([1]; 0.3 µM) of the same compound?
The relative infection was 1.22.

And the relative infection ([1]; 0.9 µM)?
The relative infection was 1.20.

And the relative infection ([1]; 2.8 µM)?
The relative infection was 1.06.

What about the relative infection ([1]; 8.3 µM) of the same compound?
Its relative infection is 0.71.

And the relative infection ([1]; 25.0 µM)?
The relative infection was 0.29.

And the IC50 [2]?
Its IC50 is ~25.8 µM.

And the IC50 [3]?
The IC50 was 3.36 µM.

What about the activity at 0.03 µM [3] of the same compound?
The activity at 0.03 µM was 93%.

What about the activity at 0.1 µM [3] of the same compound?
The activity at 0.1 µM was 85%.

And the activity at 0.31 µM [3]?
The activity at 0.31 µM was 88%.

What about the activity at 0.93 µM [3] of the same compound?
Its activity at 0.93 µM is 87%.

And the activity at 2.78 µM [3]?
The activity at 2.78 µM was 66%.

What about the activity at 8.33 µM [3] of the same compound?
The activity at 8.33 µM was 17%.

What about the activity at 25 µM [3] of the same compound?
The activity at 25 µM was 4%.

What about the relative infection ([4]; 0.1 µM) of the same compound?
The relative infection was 1.05.

And the relative infection ([4]; 0.3 µM)?
Its relative infection is 0.96.

What about the relative infection ([4]; 0.9 µM) of the same compound?
The relative infection was 0.86.

What about the relative infection ([4]; 2.8 µM) of the same compound?
Its relative infection is 0.72.

What about the relative infection ([4]; 8.3 µM) of the same compound?
Its relative infection is 0.15.

What about the relative infection ([4]; 25.0 µM) of the same compound?
Its relative infection is 0.01.

And the IC50 [5]?
The IC50 was 11.1 µM.

What about the relative infection ([6]; 0.1 µM) of the same compound?
Its relative infection is 0.93.

And the relative infection ([6]; 0.3 µM)?
The relative infection was 0.91.

What about the relative infection ([6]; 0.9 µM) of the same compound?
The relative infection was 0.84.

And the relative infection ([6]; 2.8 µM)?
The relative infection was 0.62.

And the relative infection ([6]; 8.3 µM)?
The relative infection was 0.17.

And the relative infection ([6]; 25.0 µM)?
Its relative infection is 0.02.

What about the IC50 [7] of the same compound?
The IC50 was 15 µM.

And the relative infection ([8]; 0.1 µM)?
The relative infection was 1.05.

And the relative infection ([8]; 0.3 µM)?
Its relative infection is 1.06.

And the relative infection ([8]; 0.9 µM)?
The relative infection was 1.11.

And the relative infection ([8]; 2.8 µM)?
Its relative infection is 1.06.

What about the relative infection ([8]; 8.3 µM) of the same compound?
Its relative infection is 1.00.

What about the relative infection ([8]; 25.0 µM) of the same compound?
Its relative infection is 1.27.

What about the IC50 [9] of the same compound?
Its IC50 is 10.2 µM.

What about the relative infection ([10]; 0.1 µM) of the same compound?
The relative infection was 0.99.

And the relative infection ([10]; 0.3 µM)?
The relative infection was 1.00.

What about the relative infection ([10]; 0.9 µM) of the same compound?
Its relative infection is 0.96.

What about the relative infection ([10]; 2.8 µM) of the same compound?
The relative infection was 0.96.

And the relative infection ([10]; 8.3 µM)?
The relative infection was 0.68.

What about the relative infection ([10]; 25.0 µM) of the same compound?
The relative infection was 0.10.

What about the IC50 [11] of the same compound?
Its IC50 is 3.98 µM.

And the relative infection ([12]; 0.1 µM)?
Its relative infection is 0.87.

What about the relative infection ([12]; 0.3 µM) of the same compound?
Its relative infection is 0.98.

And the relative infection ([12]; 0.9 µM)?
Its relative infection is 1.00.

What about the relative infection ([12]; 2.8 µM) of the same compound?
Its relative infection is 0.99.

What about the relative infection ([12]; 8.3 µM) of the same compound?
Its relative infection is 1.10.

And the relative infection ([12]; 25.0 µM)?
Its relative infection is 0.59.

And the IC50 [13]?
Its IC50 is 6.87 µM.

And the relative infection ([14]; 0.1 µM)?
The relative infection was 0.87.

And the relative infection ([14]; 0.3 µM)?
The relative infection was 0.90.

And the relative infection ([14]; 0.9 µM)?
The relative infection was 0.88.

And the relative infection ([14]; 2.8 µM)?
Its relative infection is 0.81.

What about the relative infection ([14]; 8.3 µM) of the same compound?
Its relative infection is 0.46.

What about the relative infection ([14]; 25.0 µM) of the same compound?
The relative infection was 0.07.
